Tests used:
Assay in all cases: relative viability (nuclei count vs DMSO), 5 days (fraction); higher = more cells survive
17-AAG + Navitoclax = compound: C=CCNC1=C2C[C@@H](C)C[C@H](OC)[C@H](O)[C@@H](C)/C=C(\C)[C@H](OC(N)=O)[C@@H](OC)/C=C\C=C(/C)C(=O)NC(=CC1=O)C2=O [17-AAG] + CC1(C)CCC(c2ccc(Cl)cc2)=C(CN2CCN(c3ccc(C(=O)NS(=O)(=O)c4ccc(N[C@H](CCN5CCOCC5)CSc5ccccc5)c(S(=O)(=O)C(F)(F)F)c4)cc3)CC2)C1 [Navitoclax] (partner 0.5 µM)
Procedure, shortened: (§1)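 After 5 days of treatment, lung cancer cells in 1536-well plates were fixed and stained in a single step (final 0.05% Triton X-100, 1% formaldehyde, 1 ug/ml Hoechst) and their nuclei counted on 4× images. Treatment had been applied by pin tool the day after seeding as one drug alone or as a fixed anchor-drug dose with five library-drug doses (not always all listed) in √10 steps. Relative viability is the nuclei count of treated wells divided by that of vehicle wells, and values are medians of duplicate plates.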

17-AAG + Tozasertib = compound: C=CCNC1=C2C[C@@H](C)C[C@H](OC)[C@H](O)[C@@H](C)/C=C(\C)[C@H](OC(N)=O)[C@@H](OC)/C=C\C=C(/C)C(=O)NC(=CC1=O)C2=O [17-AAG] + Cc1cc(Nc2cc(N3CCN(C)CC3)nc(Sc3ccc(NC(=O)C4CC4)cc3)n2)n[nH]1 [Tozasertib] (partner 0.1 µM)
Procedure, shortened: as §1

17-AAG + Vorinostat = compound: C=CCNC1=C2C[C@@H](C)C[C@H](OC)[C@H](O)[C@@H](C)/C=C(\C)[C@H](OC(N)=O)[C@@H](OC)/C=C\C=C(/C)C(=O)NC(=CC1=O)C2=O [17-AAG] + O=C(CCCCCCC(=O)Nc1ccccc1)NO [Vorinostat] (partner 1 µM)
Procedure, shortened: as §1

17-AAG + Crizotinib = compound: C=CCNC1=C2C[C@@H](C)C[C@H](OC)[C@H](O)[C@@H](C)/C=C(\C)[C@H](OC(N)=O)[C@@H](OC)/C=C\C=C(/C)C(=O)NC(=CC1=O)C2=O [17-AAG] + C[C@@H](Oc1cc(-c2cnn(C3CCNCC3)c2)cnc1N)c1c(Cl)ccc(F)c1Cl [Crizotinib] (partner 1 µM)
Procedure, shortened: as §1

Row | Cell Line | relative viability (17-AAG + Navitoclax; first compound 0.00128 µM) | relative viability (17-AAG + Navitoclax; first compound 0.004048 µM) | relative viability (17-AAG + Navitoclax; first compound 0.0128 µM) | relative viability (17-AAG + Navitoclax; first compound 0.04048 µM) | relative viability (17-AAG + Navitoclax; first compound 0.128 µM) | relative viability (17-AAG + Tozasertib; first compound 0.00128 µM) | relative viability (17-AAG + Tozasertib; first compound 0.004048 µM) | relative viability (17-AAG + Tozasertib; first compound 0.0128 µM) | relative viability (17-AAG + Tozasertib; first compound 0.04048 µM) | relative viability (17-AAG + Tozasertib; first compound 0.128 µM) | relative viability (17-AAG + Vorinostat; first compound 0.00128 µM) | relative viability (17-AAG + Vorinostat; first compound 0.004048 µM) | relative viability (17-AAG + Vorinostat; first compound 0.0128 µM) | relative viability (17-AAG + Vorinostat; first compound 0.04048 µM) | relative viability (17-AAG + Vorinostat; first compound 0.128 µM) | relative viability (17-AAG + Crizotinib; first compound 0.00128 µM) | relative viability (17-AAG + Crizotinib; first compound 0.004048 µM) | relative viability (17-AAG + Crizotinib; first compound 0.0128 µM) | relative viability (17-AAG + Crizotinib; first compound 0.128 µM) | relative viability (17-AAG + Crizotinib; first compound 0.04048 µM)
1 | NCI-H1793 | 0.346 | 0.323 | 0.228 | 0.192 | 0.151 | 0.385 | 0.313 | 0.398 | 0.154 | 0.123 | 0.687 | 0.656 | 0.283 | 0.189 | 0.148 |  |  |  |  | 
2 | HCC-827 | 0.973 | 1.03 | 1.01 |  | 0.944 | 0.402 | 0.427 | 0.467 |  | 0.432 | 0.963 | 0.864 | 0.833 |  | 0.863 | 0.941 | 0.91 | 0.943 | 0.754 | 
3 | HCC-78 | 0.753 |  | 0.938 | 0.942 | 0.286 | 0.443 | 0.401 | 0.418 | 0.637 | 0.223 | 0.441 | 0.42 | 0.47 | 0.689 | 0.413 | 0.378 |  | 0.351 | 0.235 | 0.273
4 | NCI-H2085 | 1.08 | 1.11 | 1.18 | 1.11 | 0.808 | 0.798 | 0.673 | 0.71 | 0.799 | 0.679 | 0.787 | 0.809 | 0.861 | 0.665 | 0.599 | 0.913 | 0.71 | 0.971 | 0.637 | 0.924
5 | PC-3 [JPC-3] | 0.794 | 0.82 | 0.835 |  | 0.793 | 0.894 | 0.847 | 0.922 |  | 0.839 | 1 | 0.819 | 0.795 | 0.503 | 0.8 | 0.956 | 0.99 | 0.833 | 0.91 | 
6 | NCI-H2342 |  |  |  |  |  | 0.442 | 0.437 | 0.518 | 0.493 | 0.306 | 0.651 | 0.86 | 0.715 | 0.668 | 0.409 |  |  |  |  | 
7 | A-427 | 0.95 | 0.946 | 0.891 | 0.991 | 0.986 | 0.21 | 0.221 | 0.238 | 0.257 | 0.186 | 0.875 | 0.849 | 0.867 | 0.373 | 0.298 | 1.03 | 0.872 | 0.899 | 0.798 | 0.881
8 | H3255 | 0.489 | 0.66 | 0.547 | 0.0858 | 0.107 | 0.957 | 0.496 | 0.612 | 0.234 | 0.228 | 0.898 | 0.864 | 0.82 | 0.282 | 0.292 | 0.926 | 0.833 | 0.646 | 0.161 | 0.196
9 | HCC-44 | 1 | 0.929 | 0.897 | 0.481 | 0.207 | 0.898 | 0.753 | 0.293 | 0.19 | 0.135 | 1.17 | 1.13 | 1.19 | 1.09 | 0.917 | 0.823 | 0.746 | 0.766 | 0.122 | 0.204
10 | NCI-H1734 | 0.871 | 0.811 | 0.756 | 0.24 | 0.114 | 0.272 | 0.293 | 0.224 | 0.161 | 0.125 | 0.77 | 0.851 | 0.574 | 0.271 | 0.132 | 0.647 | 0.681 | 0.646 | 0.142 | 0.195
11 | ABC-1 |  |  |  |  |  | 0.163 | 0.2 | 0.185 | 0.207 | 0.175 | 1.15 | 1.15 | 1.21 | 1.06 | 0.724 | 1.19 | 1.08 | 1.04 | 0.898 | 1.3
12 | NCI-H358 |  |  |  |  |  | 0.115 | 0.0905 | 0.0894 | 0.0684 | 0.0644 | 0.703 | 0.439 | 0.113 | 0.0837 | 0.0628 | 0.752 | 0.268 | 0.152 | 0.0862 | 0.118
13 | EBC-1 | 0.514 | 0.203 | 0.157 | 0.182 | 0.126 |  |  |  |  |  |  |  |  |  |  | 0.237 | 0.207 | 0.163 | 0.135 | 0.148
14 | NCI-H661 |  |  |  |  |  | 0.372 | 0.326 | 0.358 | 0.344 | 0.289 | 0.785 | 0.791 | 0.707 | 0.441 | 0.31 | 1.13 | 1.02 | 0.947 | 0.532 | 0.841
15 | NCI-H1792 | 0.592 | 0.675 | 0.523 | 0.477 | 0.115 |  |  |  |  |  |  |  |  |  |  | 0.997 | 1.02 | 0.897 | 0.19 | 0.848
16 | A549 | 1.13 | 0.542 | 0.0729 | 0.0453 | 0.044 |  |  |  |  |  |  |  |  |  |  | 0.666 | 0.372 | 0.0579 | 0.0363 | 0.0609
17 | SW 900 |  |  |  |  |  | 0.684 | 0.565 | 0.262 | 0.133 | 0.113 | 0.51 | 0.547 | 0.23 | 0.138 | 0.131 |  |  |  |  | 
18 | NCI-H1703 | 0.961 | 0.22 | 0.16 | 0.162 | 0.125 |  |  |  |  |  |  |  |  |  |  | 0.611 | 0.634 | 0.129 | 0.119 | 0.151
19 | LCLC-103H |  |  |  |  |  | 0.555 | 0.55 | 0.458 | 0.532 | 0.643 | 0.883 | 0.844 | 0.731 | 0.832 | 0.818 | 1.12 | 0.979 | 0.976 | 1.06 | 0.928
20 | NCI-H1563 |  |  |  |  |  |  |  |  |  |  |  |  |  |  |  | 0.903 | 0.836 | 0.562 | 0.473 | 0.462
21 | NCI-H1395 | 1.03 | 1.29 | 0.698 | 0.458 | 0.344 | 0.625 | 0.698 | 0.694 | 0.408 | 0.342 | 0.626 | 0.607 | 0.415 | 0.366 | 0.368 |  |  |  |  | 

Reference: the supplement of paper PMC10307832
